From PubChem BioAssay (NCI) come the findings set out here.

“And” between values parts separate entries of the source, which are not always exact repeats. Equal values may be shown once.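 Grown in 96-well plates, cells were treated for 48 hours with each compound at five concentrations. Insufficient inhibition: endpoint recorded as highest concentration tested. Abbreviation: GI50, concentration required for 50% inhibition of growth. TGI: total growth inhibition.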

Holding throughout (test): NCI-60 cell line screen, 48 h
Experiment [1] deals with UACC-62 melanoma.
Experiment [2] deals with OVCAR-5 ovarian.
The test system of experiment [3] is LOX IMVI melanoma.
The subject of experiment [4] is HL-60(TB) leukemia.
Experiment [5] deals with SF-268 CNS.
Experiment [6] deals with OVCAR-8 ovarian.
Experiment [7] relates to EKVX NSCLC.
Experiment [8] has as its system SNB-75 CNS.
For experiment [9], the system named is HOP-92 NSCLC.
Experiment [10] deals with MDA-MB-231 breast.

Regarding `Cc1cc(Cl)ccc1NC(=O)CCCC(=O)C1CCCC1=O` (configuration not stated), the TGI in experiment [1], in experiment [2], in experiment [3], in experiment [4], in experiment [5] and in experiment [6] was greater than 100 µM each time. For the same molecule, in [7], the TGI is greater than 100 µM.

Turning to `O=C(Nc1cc(Cl)c(Cl)cc1Cl)C(=O)C1C=CCS1(=O)=O` (configuration not stated), the TGI in [8], in experiment [1], in experiment [2], in [9], in [3] and in [4] was greater than 100 µM each time. The TGI in [5], in experiment [6] and in experiment [7] was greater than 100 µM each time.

Consider `CCCCCCCCC[C@@H]1CC(=O)OCC2OC(O[C@H](CCCCCCCCC)CC(=O)OCC3OC(O[C@H](CCCCCCCCC)CC(=O)OCC4OC(O1)C(O)C(O)C4O)C(O)C(O)C3O)C(O)C(O)C2O` (some centres not stated), for which the TGI in experiment [8] was determined as 22.5 µM; in [1], 28.6 µM; in experiment [2], 22.5 µM; in experiment [9], 22.6 µM; in experiment [3] it was 11.7 µM; in experiment [4], 31.8 µM. For the same molecule, the TGI was 7.74 µM in experiment [5], 28.7 µM in experiment [6] and 25.1 µM in [7].

In the case of `O=S(=O)(N/N=C/c1ccc(/C=N/NS(=O)(=O)c2ccccc2)cc1)c1ccccc1`, the TGI in experiment [8] is greater than 100 µM; in experiment [1], 54.1 µM; in experiment [2] it was 51 µM; in experiment [9] it was 64.8 µM; in [3] it was 51 µM; in experiment [4] it was 53.3 µM. Further, the TGI in experiment [5], in [6] and in experiment [7] was greater than 100 µM in each case.

Consider `O=[N+]([O-])c1cccc(C2N3CCCCC3[C@@H]3c4[nH]c5ccccc5c4CCN23)c1` (some centres not stated), for which the TGI in [1] was 19.9 µM; in [2], 32.7 µM; in [9] it was 36.2 µM; in experiment [4], 29 µM; in experiment [5] it was 27.4 µM; in experiment [6], greater than 100 µM. In [7], this molecule gave a TGI of 69.9 µM.

As to `COc1c2nc(CCl)[nH]c(=O)c2c(OC)c2nc(CCl)[nH]c(=O)c12`, the TGI in experiment [8], in experiment [1], in experiment [2], in experiment [9], in experiment [3] and in experiment [4] was greater than 100 µM throughout. The TGI in experiment [5] and in experiment [6] was greater than 100 µM throughout.

In the case of `CC/C(C)=C1\CCC(CN2CCOCC2)C1=O` (configuration not stated), the TGI in experiment [8] was determined as 40.6 µM; in [1] it was 32.7 µM; in [2], 31.3 µM; in experiment [9], 32.4 µM; in [3], 30.5 µM; in [4], 44 µM. Further, the TGI stood at 26 µM in experiment [5], 50.6 µM in experiment [6] and 34 µM in experiment [7].

Take `CC1C[C@@]2(c3ccccc3)C(=O)CCC[C@H]2N1` (some centres not stated): the TGI in experiment [8], in [1], in experiment [2], in experiment [9], in [4] and in experiment [5] was greater than 100 µM throughout. The TGI in experiment [6] and in experiment [7] was greater than 100 µM in each case.

Turning to `C=CC1(C(=O)O)CCC(C(C)(C)C)CC1` (configuration not stated), the TGI in experiment [8], in [1], in experiment [2], in experiment [9], in experiment [4] and in experiment [5] was greater than 100 µM throughout. Also, the TGI in experiment [6] and in experiment [7] was greater than 100 µM in each case.

Regarding `O=C1OC(CC(=O)c2ccc(Cl)c(Cl)c2)C(Cl)=C1Cl` (configuration not stated), the TGI in experiment [8], in experiment [1], in experiment [2], in experiment [3], in experiment [4] and in [5] was greater than 100 µM throughout. Besides, the TGI in experiment [6] and in experiment [7] was greater than 100 µM each time.

As to `CC(=O)OCC1OC(N2C(=O)C(=O)c3cc(C)ccc32)C(OC(C)=O)C(OC(C)=O)C1OC(C)=O` (configuration not stated), the TGI in experiment [8] was greater than 100 µM; in [1], greater than 100 µM; in [2], greater than 100 µM; in [9], greater than 100 µM; in experiment [3], 34.3 µM; in experiment [4] it was 59.5 µM. Moreover, the TGI in experiment [5], in [6] and in [7] was greater than 100 µM throughout.

On to `CCNC(=O)CCN(C(=O)O)S(=O)(=O)c1ccc(NC(=O)c2ccccc2)cc1`, for which the TGI in experiment [8] was greater than 100 µM; in experiment [1], greater than 100 µM; in experiment [2], greater than 100 µM; in experiment [9], greater than 100 µM; in experiment [3], 43.8 µM; in experiment [4] it was greater than 100 µM. Moreover, the TGI in experiment [5], in [6] and in experiment [7] was greater than 100 µM each time.

Take `NNC(=O)/C(=C/c1ccc(Cl)c(Cl)c1)NC(=O)c1ccccc1`: the TGI in experiment [8], in experiment [1], in experiment [2], in experiment [9], in experiment [3] and in experiment [4] was greater than 100 µM in each case. Moreover, the TGI in experiment [5], in experiment [6] and in [7] was greater than 100 µM each time.

Consider `CC1=C(C(=O)Nc2ccccc2C)C(c2ccc(Cl)c(Cl)c2)C(C(=O)Nc2ccccc2C)=C(C)N1`, for which the TGI in experiment [8] was greater than 100 µM; in [1], 39.2 µM; in [2] it was 53.5 µM; in [9] it was 33.4 µM; in [3] it was 37.5 µM; in experiment [4], 45.4 µM. For the same molecule, the TGI in [5] was 47.3 µM; in experiment [6], greater than 100 µM; in [7], greater than 100 µM.

Take `CCOC(=O)NC(=O)c1cn(CC(=O)NCC(=O)NCC(=O)NCCCN2CCN(CCCNC(=O)CNC(=O)CNC(=O)Cn3cc(C(=O)NC(=O)OCC)c(=O)[nH]c3=O)CC2)c(=O)[nH]c1=O`: the TGI in experiment [8], in [1], in [2], in [9], in experiment [3] and in experiment [4] was greater than 100 µM throughout. Moreover, the TGI in experiment [5] and in experiment [6] was greater than 100 µM each time.

For `Cc1c[nH]c2c(O)cc3c(c12)[C@H](CCl)CN3C(=O)c1cc2cc(NC(=O)Nc3ccc4[nH]c(C(=O)N5C[C@@H](CCl)c6c5cc(O)c5[nH]cc(C)c65)cc4c3)ccc2[nH]1`, the TGI was > 100 µM and 0.00813 µg/mL in experiment [9]; 54.6 µM in [10]; 58.9 nM and 82.3 µM and 0.00887 µg/mL in experiment [5]; 16.3 µM and 2e-06 µg/mL and 0.000888 µg/mL in experiment [6]; 7.21 nM and > 100 µM and 9.5e-07 µg/mL in [7]. Moreover, the GI50 in [10] was 0.0176 µM; in experiment [3] it was 0.00117 µM.

Consider `COc1cc(Cl)c2c3c(c(C(C)=O)oc13)CCC2`, for which the TGI in [8], in [1], in [9], in experiment [3], in experiment [4] and in experiment [6] was greater than 100 µM each time. The TGI in experiment [7] is greater than 100 µM.

Consider `COc1cc(/C=C(\C#N)C(=O)c2ccccc2)ccc1OCc1ccccc1`, for which the TGI in [1], in experiment [2], in experiment [3], in experiment [4], in [6] and in [7] was greater than 100 µM in each case.

For the molecule `CCOC(=O)C(N)C[S][Sn]([CH3])([CH3])[Cl]` (configuration not stated), the GI50 is 52.5 µM in experiment [8]; 65.9 µM in experiment [1]; greater than 100 µM in experiment [2]; greater than 100 µM in experiment [9]; 37 µM in [3]; greater than 51.4 µM in experiment [4]. Also, the GI50 in experiment [5], in experiment [6] and in experiment [7] was greater than 100 µM in each case. Also, the TGI was greater than 100 µM in [8]; greater than 100 µM in experiment [1]; greater than 100 µM in experiment [2]; greater than 100 µM in experiment [9]; greater than 100 µM in experiment [3]; greater than 77.4 µM in experiment [4]. Also, the TGI in [5], in experiment [6] and in experiment [7] was greater than 100 µM in each case.

Take `CC[C@@H]1OC2(C)CC(S(=O)(=O)c3ccccc3O)CC1O2` (some centres not stated): the TGI in [8], in experiment [1], in experiment [2], in experiment [9], in experiment [4] and in experiment [5] was greater than 100 µM throughout. For the same molecule, the TGI in experiment [6] and in [7] was greater than 100 µM each time.

`Cc1[nH]c2ccccc2c1C1Cc2ccccc2N1C(=O)/C=C\C(=O)O` (configuration not stated): the TGI was greater than 100 µM in [8]; 72.3 µM in experiment [1]; greater than 100 µM in [2]; 76.6 µM in [9]; 37.6 µM in experiment [3]; 68.2 µM in [4]. Also, the TGI in experiment [5] is 68.4 µM; in [7], greater than 100 µM.

`COc1ccccc1N1C(=O)/C(=C/c2ccc(N(CCC#N)CCC#N)cc2C)N=C1c1cc([N+](=O)[O-])ccc1Cl`: the TGI in experiment [8], in [2], in experiment [4], in experiment [5], in experiment [6] and in [7] was greater than 100 µM in each case.

Regarding `CC(C)CS(=O)(=O)/C(=C(\c1ccc(Br)cc1)S(=O)(=O)CC(C)C)c1ccc(Br)cc1`, the TGI in [8], in experiment [1], in experiment [2], in experiment [9], in experiment [3] and in experiment [5] was greater than 100 µM throughout. The TGI in experiment [6] and in experiment [7] was greater than 100 µM throughout.

For the molecule `COc1ccc([N+]2=NC(c3ccc([N+](=O)[O-])cc3)=NN(c3ccccc3)C2)cc1`, the TGI in experiment [2] is greater than 100 µM; in experiment [3], greater than 100 µM; in experiment [4] it was 83.2 µM and 69.3 µM; in experiment [5], greater than 100 µM; in [6], greater than 100 µM; in [7] it was greater than 100 µM.

On to `COc1ccc(NC(=O)C(=O)C(C(=O)c2ccccc2)C2OC(=O)c3ccccc32)c([N+](=O)[O-])c1` (configuration not stated), for which the TGI in experiment [8], in experiment [1], in experiment [2], in [9], in experiment [3] and in [4] was greater than 100 µM throughout. For the same molecule, the TGI in experiment [5], in [6] and in [7] was greater than 100 µM each time.

`NC(=O)C(=Cc1ccc(C(O)P(=O)(O)O)cc1)C(N)=O` (configuration not stated): the TGI in [8], in [1], in [2], in experiment [9], in [3] and in experiment [6] was greater than 100 µM each time. For the same molecule, the TGI in experiment [7] is greater than 100 µM.

Regarding `CCCCc1c2c(nc3c1CCC/C3=C\c1ccccc1)C(=O)CCC2`, the TGI in experiment [8] turned out to be 84.5 µM; in experiment [1], 44 µM; in experiment [2] it was 43.1 µM; in experiment [9], 58.7 µM; in experiment [3] it was 34.1 µM; in [4], 74.3 µM. Moreover, the TGI is 44.3 µM in experiment [5], greater than 100 µM in experiment [6] and 68.4 µM in [7].

Consider `COC(=O)c1s/c(=N\C(=S)N(C)C)n(-c2ccccc2)c1C(=O)OC`, for which the TGI in experiment [8], in experiment [1], in [2], in experiment [9], in [3] and in experiment [4] was greater than 100 µM throughout. Besides, the TGI in experiment [5], in experiment [6] and in experiment [7] was greater than 100 µM throughout.

For `COc1ccc(-c2onc(-c3ccc([N+](=O)[O-])cc3)c2C2=NCCN2)cc1`, the TGI in experiment [8] was 44 µM; in experiment [1], greater than 100 µM; in experiment [2], greater than 100 µM; in [3], greater than 100 µM; in [4] it was greater than 100 µM; in [5] it was greater than 100 µM. Besides, the TGI in [6] and in [7] was greater than 100 µM in each case.
